Results on two compounds are retold here after US20160120861A1, “Compositions and Methods for Treating an Arrhythmia with an Opioid Antagonist” (PURDUE PHARMA L.P., priority 2013, published 2016).

This data set can be described thus: QT study following E14 principles: ECG effects (QTcI) of BTDS alone, BTDS with naltrexone, naltrexone and moxifloxacin relative to placebo. The following applies: for Mean change from baseline (QTcI): 24-hr ECG at steady state. The method, then:
A QT study following E14 principles regarding design, conduct, analysis, and interpretation was conducted with the following objectives
Primary: • To evaluate the ECG effects of 10, 40, and 80 mcg/hr buprenorphine delivered by a Buprenorphine Transdermal System (BTDS) alone, or by BTDS dosed with naltrexone tablets, relative to placebo in healthy male and female subjects
To evaluate the ECG effects of moxifloxacin relative to placebo (assay sensitivity)
To evaluate the ECG effects of BTDS+Naltrexone (NTX) vs. BTDS alone
To evaluate the ECG effects of naltrexone alone vs. placebo
The study was a randomized, double-blind, placebo and positive controlled, parallel group study with the following parameters:
• Healthy male or female subjects aged 18 to 55 years, inclusive • Heart rate between 45-85 bpm • No clinically significant medical history or disease • Subjects with personal or family history of prolonged QT interval or abnormal cardiovascular condition excluded
60 subjects/treatment group
• 1) BTDS alone (Butrans® 5, 10, 20, 40, 80 mcg/hr) • 2) Moxifloxacin (400 mg single doses on Days 6, 13, 17) • 3) Placebo • 4) Naltrexone alone (NTX 50 mg q12 h days 4-17) • 5) BTDS+Naltrexone (BTDS 10, 20, 40, 80 mcg/hr with NTX 50 mg q12 h days 4-17)
BTDS or matching placebo patches were applied according to a dose-escalation and dose tapering scheme
24-hr ECG were collected at steady-state for each BTDS dose level at Days 6 (10 mcg/hr), 13 (40 mcg/hr) and 17 (80 mcg/hr).
Continuous 24-hr 12-lead digital Holter ECG collections were performed as follows: • Two 24-hour baseline recordings (Days −2 and −1) • Three 24-hour periods on-treatment for Days 6 (10 mcg/hr), 13 (40 mcg/hr) and 17 (80 mcg/hr).
ECGs were extracted at 13 time points (0, 0.5, 1, 1.5, 2, 2.5, 3, 4, 7, 10, 13, 18, 23.5 hours) over each 24-hour ECG recording period.
Subjects rested supine for at least 10 minutes prior to each nominal ECG extraction time and activity was limited for the prior 2 hours.
4 ECGs were extracted and quantified at each nominal time point by a blinded central ECG laboratory.
The primary QT correction for heart rate was QTcI. 104 baseline ECGs were used to determine subject-specific HR correction.
Placebo-corrected change from baseline QTcI means and 90% CIs were calculated using a mixed effects general linear model with covariates for time, treatment, time by treatment interaction, and sex.

With `O=C1CC[C@@]2(O)[C@H]3Cc4ccc(O)c5c4[C@@]2(CCN3CC2CC2)[C@H]1O5` [NTX, naltrexone], the “>30-60 ms inc, N (%)” value is, setting by setting: (Day 6, QTcI, healthy subjects) 0 N (%); (Day 13, QTcI, healthy subjects) 1 (2%) N (%); (Day 17, QTcI, healthy subjects) 1 (2%) N (%). Further, the “>60 ms inc, N (%)” value reads like this: (Day 6, QTcI, healthy subjects) 0 N (%); (Day 13, QTcI, healthy subjects) 0 N (%); (Day 17, QTcI, healthy subjects) 0 N (%). Also, the “New >480 ms, N (%)” value by setting is: (Day 6, QTcI, healthy subjects) 0 N (%); (Day 13, QTcI, healthy subjects) 0 N (%); (Day 17, QTcI, healthy subjects) 0 N (%). Besides, the “New >500 ms, N (%)” value was 0 N (%) (Day 6, QTcI, healthy subjects); 0 N (%) (Day 13, QTcI, healthy subjects); 0 N (%) (Day 17, QTcI, healthy subjects). In addition, the “Mean change from baseline (QTcI)” value is 1.5 ms (Day 6, healthy subjects); -1.7 ms (Day 13, healthy subjects); -0.9 ms (Day 17, healthy subjects). Further, the “Mean change in baseline of the QT interval as compared to buprenorphine alone” value (naltrexone administered with buprenorphine) is “reduced”.

In the case of `COc1c(N2C[C@@H]3CCCN[C@@H]3C2)c(F)cc2c(=O)c(C(=O)O)cn(C3CC3)c12` [Moxifloxacin], where the note is “both, human, in vivo”, the “>60 ms inc, N (%)” value is recorded as 0 N (%); the “New >480 ms, N (%)” value is given as 0 N (%); the “New >500 ms, N (%)” value was 0 N (%). The “QTcI results (positive control, assay sensitivity)” value (in vivo) was “as expected”.
